Measured values: patent publication US8192962B2, “Processes for detecting toxic substances” (Daikin Industries, Ltd., priority 2001, dated 2012)

Test system: Unknown protein yeast genes
Assay: DNA chip mRNA expression in yeast, unknown protein yeast genes (Table 1)
Type: cell-based, Saccharomyces cerevisiae S288C
Summary of the method: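 Cells were grown at 25° C. in YPD, treated at logarithmic phase for 2 h with a chemical at a concentration inhibiting growth but not causing death, and compared with untreated cultures. Labeled cDNA was hybridized to a DNA chip carrying all yeast genes, and the expression ratio was taken from scanner fluorescence.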

[Cl][Pb][Cl] [(4), PbCl2]
The level of expressed mRNA in the presence of chemical substance/The level of expressed mRNA in the absence of chemical substance (yeast gene YKL195W, incubated two hours with chemical substance): 1.1 | The level of expressed mRNA in the presence of chemical substance/The level of expressed mRNA in the absence of chemical substance (yeast gene YKR091W, incubated two hours with chemical substance): 3.5 | The level of expressed mRNA in the presence of chemical substance/The level of expressed mRNA in the absence of chemical substance (yeast gene YLR054C, incubated two hours with chemical substance): 2.4 | The level of expressed mRNA in the presence of chemical substance/The level of expressed mRNA in the absence of chemical substance (yeast gene YLR149C, incubated two hours with chemical substance): 2.3 | The level of expressed mRNA in the presence of chemical substance/The level of expressed mRNA in the absence of chemical substance (yeast gene YLR152C, incubated two hours with chemical substance): 0.9 | The level of expressed mRNA in the presence of chemical substance/The level of expressed mRNA in the absence of chemical substance (yeast gene YLR194C, incubated two hours with chemical substance): 3.6 | The level of expressed mRNA in the presence of chemical substance/The level of expressed mRNA in the absence of chemical substance (yeast gene YLR324W, incubated two hours with chemical substance): 1.0 | The level of expressed mRNA in the presence of chemical substance/The level of expressed mRNA in the absence of chemical substance (yeast gene YLR350W, incubated two hours with chemical substance): 2.3 | The level of expressed mRNA in the presence of chemical substance/The level of expressed mRNA in the absence of chemical substance (yeast gene YLR387C, incubated two hours with chemical substance): 0.6 | The level of expressed mRNA in the presence of chemical substance/The level of expressed mRNA in the absence of chemical substance (yeast gene YLR460C): 1.1 | The level of expressed mRNA in the presence of chemical substance/The level of expressed mRNA in the absence of chemical substance (yeast gene YML117W, incubated two hours with chemical substance): 1.6 | The level of expressed mRNA in the presence of chemical substance/The level of expressed mRNA in the absence of chemical substance (yeast gene YMR009W, incubated two hours with chemical substance): 1.9 | The level of expressed mRNA in the presence of chemical substance/The level of expressed mRNA in the absence of chemical substance (yeast gene YMR067C, incubated two hours with chemical substance): 0.4 | The level of expressed mRNA in the presence of chemical substance/The level of expressed mRNA in the absence of chemical substance (yeast gene YMR090W): 3.5 | The level of expressed mRNA in the presence of chemical substance/The level of expressed mRNA in the absence of chemical substance (yeast gene YMR095C, incubated two hours with chemical substance): 1.0 | The level of expressed mRNA in the presence of chemical substance/The level of expressed mRNA in the absence of chemical substance (yeast gene YMR097C, incubated two hours with chemical substance): 1.6 | The level of expressed mRNA in the presence of chemical substance/The level of expressed mRNA in the absence of chemical substance (yeast gene YMR102C, incubated two hours with chemical substance): 0.8 | The level of expressed mRNA in the presence of chemical substance/The level of expressed mRNA in the absence of chemical substance (yeast gene YMR107W, incubated two hours with chemical substance): 18.4 | The level of expressed mRNA in the presence of chemical substance/The level of expressed mRNA in the absence of chemical substance (yeast gene YMR180C, incubated two hours with chemical substance): 1.3 | The level of expressed mRNA in the presence of chemical substance/The level of expressed mRNA in the absence of chemical substance (yeast gene YMR184W, incubated two hours with chemical substance): 1.1 | The level of expressed mRNA in the presence of chemical substance/The level of expressed mRNA in the absence of chemical substance (yeast gene YMR191W, incubated two hours with chemical substance): 1.6 | The level of expressed mRNA in the presence of chemical substance/The level of expressed mRNA in the absence of chemical substance (yeast gene YMR295C, incubated two hours with chemical substance): 1.6 | The level of expressed mRNA in the presence of chemical substance/The level of expressed mRNA in the absence of chemical substance (yeast gene YMR316W, incubated two hours with chemical substance): 1.9 | The level of expressed mRNA in the presence of chemical substance/The level of expressed mRNA in the absence of chemical substance (yeast gene YNL044W, incubated two hours with chemical substance): 1.3 | The level of expressed mRNA in the presence of chemical substance/The level of expressed mRNA in the absence of chemical substance (yeast gene YNL074C, incubated two hours with chemical substance): 1.2 | The level of expressed mRNA in the presence of chemical substance/The level of expressed mRNA in the absence of chemical substance (yeast gene YNL092W, incubated two hours with chemical substance): 1.8 | The level of expressed mRNA in the presence of chemical substance/The level of expressed mRNA in the absence of chemical substance (yeast gene YNL115C, incubated two hours with chemical substance): 1.4 | The level of expressed mRNA in the presence of chemical substance/The level of expressed mRNA in the absence of chemical substance (yeast gene YNL156C, incubated two hours with chemical substance): 1.3 | The level of expressed mRNA in the presence of chemical substance/The level of expressed mRNA in the absence of chemical substance (yeast gene YNL234W, incubated two hours with chemical substance): 1.8 | The level of expressed mRNA in the presence of chemical substance/The level of expressed mRNA in the absence of chemical substance (yeast gene YNL281W, incubated two hours with chemical substance): 1.4 | The level of expressed mRNA in the presence of chemical substance/The level of expressed mRNA in the absence of chemical substance (yeast gene YNL305C, incubated two hours with chemical substance): 1.4 | The level of expressed mRNA in the presence of chemical substance/The level of expressed mRNA in the absence of chemical substance (yeast gene YNR068C, incubated two hours with chemical substance): 2.6 | The level of expressed mRNA in the presence of chemical substance/The level of expressed mRNA in the absence of chemical substance (yeast gene YOL032W, incubated two hours with chemical substance): 1.3 | The level of expressed mRNA in the presence of chemical substance/The level of expressed mRNA in the absence of chemical substance (yeast gene YOL036W, incubated two hours with chemical substance): 0.8 | The level of expressed mRNA in the presence of chemical substance/The level of expressed mRNA in the absence of chemical substance (yeast gene YOL047C, incubated two hours with chemical substance): 2.5 | The level of expressed mRNA in the presence of chemical substance/The level of expressed mRNA in the absence of chemical substance (yeast gene YOL071W, incubated two hours with chemical substance): 2.0 | The level of expressed mRNA in the presence of chemical substance/The level of expressed mRNA in the absence of chemical substance (yeast gene YOL082W, incubated two hours with chemical substance): 2.1 | The level of expressed mRNA in the presence of chemical substance/The level of expressed mRNA in the absence of chemical substance (yeast gene YOL083W, incubated two hours with chemical substance): 2.8 | The level of expressed mRNA in the presence of chemical substance/The level of expressed mRNA in the absence of chemical substance (yeast gene YOL117W, incubated two hours with chemical substance): 1.4 | The level of expressed mRNA in the presence of chemical substance/The level of expressed mRNA in the absence of chemical substance (yeast gene YOL131W, incubated two hours with chemical substance): 1.0 | The level of expressed mRNA in the presence of chemical substance/The level of expressed mRNA in the absence of chemical substance (yeast gene YOL150C): 0.9 | The level of expressed mRNA in the presence of chemical substance/The level of expressed mRNA in the absence of chemical substance (yeast gene YOL162W, incubated two hours with chemical substance): 1.4 | The level of expressed mRNA in the presence of chemical substance/The level of expressed mRNA in the absence of chemical substance (yeast gene YOR019W, incubated two hours with chemical substance): 4.7 | The level of expressed mRNA in the presence of chemical substance/The level of expressed mRNA in the absence of chemical substance (yeast gene YOR197W, incubated two hours with chemical substance): 1.4 | The level of expressed mRNA in the presence of chemical substance/The level of expressed mRNA in the absence of chemical substance (yeast gene YPL087W, incubated two hours with chemical substance): 7.3 | The level of expressed mRNA in the presence of chemical substance/The level of expressed mRNA in the absence of chemical substance (yeast gene YPL196W, incubated two hours with chemical substance): 1.7 | The level of expressed mRNA in the presence of chemical substance/The level of expressed mRNA in the absence of chemical substance (yeast gene YPL206C, incubated two hours with chemical substance): 1.9 | The level of expressed mRNA in the presence of chemical substance/The level of expressed mRNA in the absence of chemical substance (yeast gene YPL222W, incubated two hours with chemical substance): 1.3 | The level of expressed mRNA in the presence of chemical substance/The level of expressed mRNA in the absence of chemical substance (yeast gene YPR023C, incubated two hours with chemical substance): 0.8 | The level of expressed mRNA in the presence of chemical substance/The level of expressed mRNA in the absence of chemical substance (yeast gene YPR151C, incubated two hours with chemical substance): 4.1
